Laboratory results as given in EP0678516B1, “Preparation of 2-bromo-5-(2-bromo-2-nitrovinyl)-furan and its use as microcide” (CENTRO DE BIOACTIVOS QUIMICOS DE LA UNIVERSIDAD CENTRAL DE …, priority 1994, dated 1995).

System: Pseudomonas aeruginosa
Test: Infected burn wound treated with ointments
Format: in vivo, guinea-pigs
Conditions: concentration of ointment applied on 2 cm^2 infected burns
Experimental: The "in vivo" effectiveness of four ointments of 2-bromo-5-(2-bromo-2-nitro-vinyl)-furan was evaluated at 1, 0.5, 0.25 and 0.125% in hydrophislous ointment applying it on 2 cm^2 of burns provoked to guinea-pigs and subsequently infected with Pseudomonas aeruginosa by a burn wound in an area of 2 cm^2, using positive and negative control groups.

O=[N+]([O-])C(Br)=Cc1ccc(Br)o1 [Product G-1, 2-bromo-5-(2-bromo-2-nitro-vinyl)-furan]
effective dose 50 (ED50): 0.125%
